Laboratory results: US11098102B2, “Insulin conjugates” (SANOFI, priority 2018, dated 2021)
Marks after values point to notes of the source that are not given here.

How the values were obtained:
[1] = molecular target: T1, insulin receptor isoform B (IR-B) (Homo sapiens, UniProt P06213); assay: Insulin receptor binding affinity assay of insulin analogs (Example 8A, SPA competition binding); design: expressed in transfected cells; host or cells: CHO cells overexpressing the IR; isolated plasma membranes; details: relative to human insulin; a value of 0 means below the detection limit
Description: Methods for determining the binding affinity of an insulin analog to an insulin receptor are well known in the art. […] The insulin receptor can be present in a membrane of a cell, e.g. of CHO (Chinese Hamster Ovary) cell, which overexpresses a recombinant insulin receptor. In an embodiment, the insulin receptor binding affinity is determined as described in the Examples section.
Insulin receptor binding affinity for the analogs listed in Table 4 was determined as described in Hartmann et al. (Effect of the long-acting insulin analogs glargine and degludec on cardiomyocyte cell signaling and function. Cardiovasc Diabetol. 2016; 15:96). Isolation of insulin receptor embedded plasma membranes (M-IR) and competition binding experiments were performed as previously described (Sommerfeld et al., PLoS One. 2010; 5 (3): e9540). Briefly, CHO-cells overexpressing the IR were collected and re-suspended in ice-cold 2.25 STM buffer (2.25 M sucrose, 5 mM Tris-HCl pH 7.4, 5 mM MgCl2, complete protease inhibitor) and disrupted using a Dounce homogenizer followed by sonication. The homogenate was overlaid with 0.8 STM buffer (0.8 M sucrose, 5 mM Tris-HCl pH 7.4, 5 mM MgCl2, complete protease inhibitor) and ultra-centrifuged for 90 min at 100,000 g. Plasma membranes at the interface were collected and washed twice with phosphate buffered saline (PBS). The final pellet was re-suspended in dilution buffer (50 mM Tris-HCl pH 7.4, 5 mM MgCl2, complete protease inhibitor) and again homogenized with a Dounce homogenizer. Competition binding experiments were performed in a binding buffer (50 mM Tris-HCl, 150 mM NaCl, 0.1% BSA, complete protease inhibitor, adjusted to pH 7.8) in 96-well microplates. In each well 2 μg isolated membrane was incubated with 0.25 mg wheat germ agglutinin polyvinyltoluene polyethylenimine scintillation proximity assay (SPA) beads. […] The radioactivity was measured at equilibrium in a microplate scintillation counter (Wallac Microbeta, Freiburg, Germany).”

[2] = molecular target: T1, insulin receptor isoform B (IR-B); assay: Insulin receptor autophosphorylation assay (In-Cell Western, CHO cells, Example 8B); type: cell-based; design: expressed in transfected cells; host or cells: CHO cells; details: relative to human insulin
[3] = molecular target: T2, immobilized human serum albumin (Homo sapiens, UniProt P02768); assay: Albumin binding: affinity chromatography on columns with immobilized human serum albumin (net retention time); details: isolated binders; HSA column 25° C., PBS pH 7.4/isopropanol gradient
T2 construct: purchased Chiralpak (Chiraltech) 34712
Description: In order to identify suitable binder molecules, which when bound to a peptide, such as an insulin, are able to improve the half-life in plasma and to prolong the profile of action, a system was established based on affinity chromatography with serum albumin columns, i.e. columns with immobilized serum albumin.
The net retention time of the binders (samples) was calculated according to the following formula: Net retention time=RetTimeSample−RetTimet0 marker
• Instrument: Waters Alliance 2795/Waters PDA 2996 or Waters H-Class UPLC equipped with a Waters Acquity photodiode-array detector • Software: Waters Empower 3 • Column: […]® HSA 50×4 mm; 5 μm Particle size • Chiraltech Order Numbers: HSA: 34712 • Eluent A: Phosphate Buffer saline (PBS) at pH=7.4 • Gibco PBS pH7.4 (10×) Phosphate Buffered Saline 500 ml; • Order Number: 70011-036 (500 ml) • Eluent B: Isopropanol • Fisher Order Number: A461-1 (10 • Gradient:
• Column temperature: 25° C. • Flow rate: 1.0 ml/min • Detection: λ=220 nm • Injection volume: 20 μL • Sample Conc.: 1 mg/ml insulin solution in PBS for insulin samples • 5 μL of 10 mM DMSO stock solution (DMSO evaporated and re-dissolved in 200 μL i-propanol/water 1:1 v/v) for isolated binder samples (250 μM, 0.2 mg/ml at 800 Da MolWeight) • t0 marker Sodium Nitrate (NaNO3) solution in water, 0.05 mg/ml • Diluted from aqueous 1 mg/ml stock solution (Fluka Order Number: 74246-100ML) • Reported Value Net retention time of sample: RetTime Sample−RetTime t0 marker
Affinity chromatography was carried out i) for insulin conjugates according to Examples 3.3 and 3.4 on a Waters Alliance Separation Module 2695 equipped with a Waters photodiode-array detector 2996 or Waters H-Class UPLC equipped with a Waters Acquity photodiode-array detector and ii) for isolated binders according to Example 2.11 on a Waters Alliance Separation Module 2795 equipped with a Waters photodiode-array detector 2996 or Waters H-Class UPLC equipped with a Waters Acquity photodiode-array detector.
Columns with immobilized human serum albumin (50×4 mm; 5 μm particle size) were purchased from Chiralpak and used for separations.
The columns with immobilized serum albumin were kept at 25° C. during the LC run, UV detection was carried out at 220 nm and injection volume was 20 μL.
The net retention time of the samples was reported according to Net retention time=RetTime Sample−RetTime t0 marker

[4] = molecular target: Insulin degrading enzyme, IDE (Homo sapiens, UniProt P14735); assay: In vitro proteolytic stability against insulin degrading enzyme (Example 9); type: in vitro ADME; details: 37° C., 2 μM
Description: (§1) The stability determination was done using appropriate time points (for SIF and SGF 15, 30, 60, 120 and 240 minutes; for proteases 15, 30, 60 and 120 minutes). The incubation was done at 37° C. and the % of remaining parent compound was calculated in reference to a TO time point.
(§2) For the determination of the parent compound an appropriate bioanalytical LC-MS/MS or LC-HRMS method was used, using the supernatant, after protein precipitation with ethanol (1 eq. v/v) and a centrifugation step.
(§3) Compounds were dissolved in diluted hydrochloric acid at a final concentration of 40 μM. The compound concentration in the assay was 2 μM. A 1:20 dilution of the working solution was done into the protease buffer and samples are then incubated at 37° C., under stirring. At the appropriate time point and aliquot was taken, the reaction was quenched ethanol (1 eq. v/v), than centrifuged. The supernatant was analyzed.

α-Chymotrypsin = α-Chymotrypsin (Bos taurus, UniProt P00766); assay: In vitro proteolytic stability against α-chymotrypsin (Example 9); type: in vitro ADME; details: 37° C., 2 μM
Description: as §1, §2, §3

Cathepsin D = Cathepsin D (Homo sapiens, UniProt P07339); assay: In vitro proteolytic stability against cathepsin D (Example 9); type: in vitro ADME; details: 37° C., 2 μM
Description: as §1, §2, §3

[5] = molecular target: T3, simulated gastric fluid (pepsin) (Sus scrofa, UniProt P00791); assay: In vitro stability in simulated gastric fluid (Example 9); type: in vitro ADME, porcine; details: 37° C., 2 μM
T3 construct: from tissue; host or cells: porcine stomach mucosa
T3 sequence (P00791 60-385): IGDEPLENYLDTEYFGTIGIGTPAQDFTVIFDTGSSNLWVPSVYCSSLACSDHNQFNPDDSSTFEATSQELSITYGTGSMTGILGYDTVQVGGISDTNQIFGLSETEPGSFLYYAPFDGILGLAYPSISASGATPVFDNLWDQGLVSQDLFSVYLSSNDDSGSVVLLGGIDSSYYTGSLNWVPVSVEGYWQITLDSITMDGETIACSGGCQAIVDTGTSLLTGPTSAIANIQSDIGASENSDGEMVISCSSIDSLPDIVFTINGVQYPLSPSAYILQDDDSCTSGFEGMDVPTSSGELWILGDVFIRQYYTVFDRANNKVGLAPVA
Description: Two grams of sodium chloride and 3.2 g of purified pepsin (from porcine stomach mucosa, with an activity of 800 to 2500 units per mg of protein) were dissolved in 7.0 ml of hydrochloric acid. The volume was adjusted with water up to 1000 ml.
as §1, §2, §3

T1 sequence (P06213 28-758 limits assumed): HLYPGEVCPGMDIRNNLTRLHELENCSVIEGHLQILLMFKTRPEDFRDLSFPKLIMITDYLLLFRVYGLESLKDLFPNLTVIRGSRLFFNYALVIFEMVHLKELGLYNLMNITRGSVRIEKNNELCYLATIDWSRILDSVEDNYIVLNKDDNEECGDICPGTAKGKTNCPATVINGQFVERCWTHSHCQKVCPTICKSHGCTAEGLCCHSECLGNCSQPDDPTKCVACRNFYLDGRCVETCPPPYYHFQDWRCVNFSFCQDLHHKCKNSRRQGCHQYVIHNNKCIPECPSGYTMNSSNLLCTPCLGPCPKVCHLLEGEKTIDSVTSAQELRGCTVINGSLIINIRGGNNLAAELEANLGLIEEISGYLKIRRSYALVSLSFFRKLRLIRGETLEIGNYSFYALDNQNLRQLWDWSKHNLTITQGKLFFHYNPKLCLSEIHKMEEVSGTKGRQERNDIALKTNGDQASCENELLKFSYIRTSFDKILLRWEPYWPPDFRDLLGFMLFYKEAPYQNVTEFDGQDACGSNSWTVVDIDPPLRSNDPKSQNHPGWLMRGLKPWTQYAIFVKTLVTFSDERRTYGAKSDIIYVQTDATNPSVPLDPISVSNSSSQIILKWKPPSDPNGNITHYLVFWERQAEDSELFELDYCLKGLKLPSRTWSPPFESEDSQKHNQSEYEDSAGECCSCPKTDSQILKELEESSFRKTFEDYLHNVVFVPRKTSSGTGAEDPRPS
T1 sequence (P06213 763-1382 limits assumed): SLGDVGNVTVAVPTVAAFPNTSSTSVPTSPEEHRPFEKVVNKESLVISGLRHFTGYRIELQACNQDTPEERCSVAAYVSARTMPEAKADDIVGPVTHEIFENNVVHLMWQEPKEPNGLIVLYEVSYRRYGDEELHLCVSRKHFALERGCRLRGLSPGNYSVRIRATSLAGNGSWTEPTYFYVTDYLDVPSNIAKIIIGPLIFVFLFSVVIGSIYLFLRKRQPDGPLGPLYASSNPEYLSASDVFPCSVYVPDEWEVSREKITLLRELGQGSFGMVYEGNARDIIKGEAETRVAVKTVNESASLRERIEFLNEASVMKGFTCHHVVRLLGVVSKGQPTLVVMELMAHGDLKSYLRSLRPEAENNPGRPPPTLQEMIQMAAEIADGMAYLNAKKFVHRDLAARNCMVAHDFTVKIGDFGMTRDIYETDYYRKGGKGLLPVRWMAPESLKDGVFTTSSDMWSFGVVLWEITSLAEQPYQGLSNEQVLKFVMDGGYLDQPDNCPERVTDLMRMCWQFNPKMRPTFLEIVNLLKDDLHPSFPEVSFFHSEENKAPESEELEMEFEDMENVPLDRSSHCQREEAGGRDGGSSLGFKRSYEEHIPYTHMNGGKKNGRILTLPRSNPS
T2 sequence (P02768 25-609): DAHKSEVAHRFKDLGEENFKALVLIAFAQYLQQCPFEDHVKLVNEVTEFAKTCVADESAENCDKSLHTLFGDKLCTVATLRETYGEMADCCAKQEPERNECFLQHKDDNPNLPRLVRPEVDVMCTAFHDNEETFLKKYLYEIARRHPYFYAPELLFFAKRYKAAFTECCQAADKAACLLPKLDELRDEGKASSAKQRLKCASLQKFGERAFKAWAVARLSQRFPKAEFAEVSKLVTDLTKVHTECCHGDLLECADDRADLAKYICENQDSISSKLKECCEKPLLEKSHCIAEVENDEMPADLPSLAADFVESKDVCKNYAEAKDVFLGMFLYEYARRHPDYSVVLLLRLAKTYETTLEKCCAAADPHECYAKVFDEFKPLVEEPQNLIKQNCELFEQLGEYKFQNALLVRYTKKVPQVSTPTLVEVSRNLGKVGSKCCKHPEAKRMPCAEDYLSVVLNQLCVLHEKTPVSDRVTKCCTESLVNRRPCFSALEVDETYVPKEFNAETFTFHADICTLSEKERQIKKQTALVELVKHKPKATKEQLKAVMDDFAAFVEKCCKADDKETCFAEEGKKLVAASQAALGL
Sequence of Cathepsin D (P07339 65-412, species assumed): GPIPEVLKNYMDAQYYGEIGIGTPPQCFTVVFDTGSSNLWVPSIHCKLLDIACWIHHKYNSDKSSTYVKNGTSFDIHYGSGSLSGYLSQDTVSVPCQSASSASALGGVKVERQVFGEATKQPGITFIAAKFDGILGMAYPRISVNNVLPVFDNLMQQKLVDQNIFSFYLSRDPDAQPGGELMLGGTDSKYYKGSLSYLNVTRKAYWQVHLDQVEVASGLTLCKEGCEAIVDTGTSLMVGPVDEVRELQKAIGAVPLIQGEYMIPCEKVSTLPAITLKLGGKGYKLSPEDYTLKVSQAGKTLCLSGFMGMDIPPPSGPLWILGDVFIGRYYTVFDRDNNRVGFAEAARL

Row | SMILES | Insulin-receptor binding affinity [1] | autophosphorylation activity [2] | NRT [min] (net retention time on columns with immobilized human serum albumin) [3] | Percent remaining insulin analog, Insulin degrading enzyme, IDE (30 minutes) [4] | Percent remaining insulin analog, α-Chymotrypsin (120 minutes) (α-Chymotrypsin) | Percent remaining insulin analog, Cathepsin D (30 minutes) (Cathepsin D) | Percent remaining insulin analog, Gastric fluid (30 minutes) [5]
1 | O=C(O)CCCCCCCCCCCOc1ccc(CCc2ccc(S(=O)(=O)Nc3ccc(C(=O)NCCOCCOCC(=O)NCCOCCOCC(=O)O)cn3)cc2)cc1 [Binder 25] | 0.02 | 0.03 | 17.48 min |  |  |  | 
2 | O=C(O)CCCCCCCCCc1ccc(CCOc2ccc(S(=O)(=O)Nc3ncc(C(=O)NCCOCCOCC(=O)NCCOCCOCC(=O)O)cn3)cc2)cc1 [Binder 10] | 0.37 | 0.31 | 15.65 min |  |  |  | 
3 | O=C(O)CCCCCCCCCCCc1cccc(S(=O)(=O)Nc2ccc(C(=O)NCCOCCOCC(=O)NCCOCCOCC(=O)O)cn2)c1 [Binder 40] | 0.01 | 0.01 | 11.44 min |  |  |  | 
4 | O=C(O)CCCCCCCCCCCCCCCCCc1ccc(S(=O)(=O)Nc2ncc(C(=O)NCCOCCOCC(=O)NCCOCCOCC(=O)O)cn2)cc1 [Binder 4] | 0.57 | 0.4 | 15.75 min |  |  |  | 
5 | O=C(O)CCCCCCCCCCCCCCc1cc(Oc2ccc(S(=O)(=O)Nc3ncc(C(=O)NCCOCCOCC(=O)NCCOCCOCC(=O)O)cn3)cc2)ccc1F [Binder 13] | 0.11 | 0.1 | 15.29 min |  |  |  | 
6 | O=C(O)CCCCCCCCCCCOc1ccc(S(=O)(=O)Nc2ncc(C(=O)NCCOCCOCC(=O)NCCOCCOCC(=O)O)cn2)cc1 [Binder 16] | 0.36 | 0.29 | 11.88 min | 88% |  |  | 
7 | O=C(O)CCCCCCCCCCCCCCCOc1ccc(S(=O)(=O)Nc2ccc(C(=O)NCCOCCOCC(=O)NCCOCCOCC(=O)O)cn2)cc1F [Binder 39] | 0 | 0.02 | 13.68 min |  |  |  | 
8 | O=C(O)CCCCCCCCCCCCCOc1ccc(S(=O)(=O)Nc2ncc(C(=O)NCCOCCOCC(=O)NCCOCCOCC(=O)O)cn2)cc1 [Binder 33] | 0.01 | 0.02 | 13.57 min |  |  |  | 
9 | O=C(O)CCCCCCCCCCCc1cc(Oc2ccc(S(=O)(=O)Nc3ncc(C(=O)NCCOCCOCC(=O)NCCOCCOCC(=O)O)cn3)cc2)ccc1F [Binder 28] | 0.12 | 0.11 | 15.39 min |  |  |  | 
10 | O=C(O)CCCCCCCCCCCCCOc1ccc(S(=O)(=O)Nc2ccc(C(=O)NCCOCCOCC(=O)NCCOCCOCC(=O)O)cn2)cc1 [Binder 32] | 0 | 0.04 | 13.9 min |  |  |  | 
11 | O=C(O)CCCCCCCCCCCCCCCOc1ccc(S(=O)(=O)Nc2ccc(C(=O)NCCOCCOCC(=O)NCCOCCOCC(=O)O)cn2)c(Cl)c1Cl [Binder 36] | 0.17 | 0.23 | 13.89 min |  |  |  | 
12 | O=C(O)CCCCCCCCCc1ccc(CCOc2ccc(S(=O)(=O)Nc3ccc(C(=O)NCCOCCOCC(=O)NCCOCCOCC(=O)O)cn3)cc2)cc1 [Binder 26] | 0.01 | 0.07 | 14.98 min |  |  |  | 
13 | O=C(O)CCCCCCCCCCCCCc1ccc(Oc2ccc(S(=O)(=O)Nc3ncc(C(=O)NCCOCCOCC(=O)NCCOCCOCC(=O)O)cn3)cc2)cc1 [Binder 11] | 0.01 | 0.06 | 14.52 min | 12% |  |  | 
14 | O=C(O)CCCCCCCCCCCCCCCc1cc(Oc2ccc(S(=O)(=O)Nc3ccc(C(=O)NCCOCCOCC(=O)NCCOCCOCC(=O)O)cn3)cc2)ccc1F [Binder 23] | 0.56 | 0.37 | 15.61 min | 80% |  |  | 
15 | O=C(O)CCCCCCCCCOc1ccc(S(=O)(=O)Nc2ccc(C(=O)NCCOCCOCC(=O)NCCOCCOCC(=O)O)cn2)cc1 [Binder 19] |  | 0.32 | 10.82 min | 98% | 30% | 0% | 0%
16 | O=C(O)CCCCCCCCCCCOc1ccc(CCc2ccc(S(=O)(=O)Nc3ncc(C(=O)NCCOCCOCC(=O)NCCOCCOCC(=O)O)cn3)cc2)cc1 [Binder 3] | 0.24 | 0.34 | 17.51 min |  |  |  | 
17 | O=C(O)CCCCCCCCCCCCCCCCCc1ccc(S(=O)(=O)Nc2ccc(C(=O)NCCOCCOCC(=O)NCCOCCOCC(=O)O)cn2)cc1 [Binder 31] | 0.12 | 0.13 | 15.77 min |  |  |  | 
18 | O=C(O)CCCCCCCCCCCCCc1ccc(S(=O)(=O)Nc2ccc(C(=O)NCCOCCOCC(=O)NCCOCCOCC(=O)O)cn2)cc1 [Binder 30] | 0** | 0.01 | 14.36 min |  |  |  | 
19 | O=C(O)CCCCCCCCCCCOc1ccc(S(=O)(=O)Nc2ccc(C(=O)NCCOCCOCC(=O)NCCOCCOCC(=O)O)cn2)cc1 [Binder 18] | 0.23 | 0.18 | 12.37 min |  |  |  | 
20 | O=C(O)CCCCCCCCCCCCCc1ccc(S(=O)(=O)Nc2ccc(C(=O)NCCOCCOCC(=O)NCCOCCOCC(=O)O)cn2)cc1 [Binder 20] | 0.4 | 0.28 | 14.8 min |  |  |  | 
